Experimental data published in BindingDB's records for PubMed 15050915 (Novartis Institutes for BioMedical Research).

Assay: Inhibition of PDK1 (unknown origin)

SMILES: Nc1ncnc2c1c(-c1cccc(OCc3ccccc3)c1)cn2[C@H]1C[C@@H](CN2CCC2)C1
- IC50: 4.8 µM
